The text below walks through data of patent publication US4537896A, “Thrombin inhibiting arylsulfonyl guanidinophenylalanine amides” (KabiVitrum AB, priority 1982, dated 1985).

The structures appear in SMILES notation. Structures can show the parent of a compound that is named as a salt.

For one assay, the target named is T1, human thrombin (Homo sapiens, UniProt P00734).
T1 construct: human thrombin; purchased Sigma Chemical Co., St. Louis, U.S.A
As to the kind of experiment: Determination of Ki, inhibition of reaction of thrombin with substrate S-2238. It is filed as biochemical. Here is the method:
(§1) The inhibition of reaction of the enzymes (human thrombin; Sigma Chemical Co., St. Louis, U.S.A. and human factor Xa; KabiVitrum AB, Stockholm) with the substrates (S-2238 resp. S-2222, Kabi Diagnostica, Stockholm) was determined at three different substrate concentrations from 0.3 to 2 km. Six different inhibitor concentrations, which give inhibition from 40% to 90%, were incubated with the enzyme for 30 seconds at 37° C. The buffer composition, ionic strength, pH and enzyme concentration were the same as those recommended in the booklets from Kabi Diagnostica. The initial reaction velocity (ΔA/min) was measured on a recorder at 405 nm. Ki values were than graphically determined from Dixon and Lineweaver-Burk diagrams.
Ki of thrombin is given in mol/l.

Assay [1] relates to thrombin. In words: Thrombin time, plasma (prolongation of coagulation time initiated by thrombin). It is filed as biochemical, dog. To be noted: for "Thrombin time" Concentration required to prolong the coagulation time by a factor of 2: Table 3; for Thrombin time, plasma: concentration of the inhibitor which doubles the thrombin time of dog plasma: Table 1, 37° C., 30 seconds incubation. The procedure:
A volume of 200 μl citrate-plasma was heated for 1 minute at 37° C. The coagulation was started by adding 10 μl fresh thrombin solution (about 5 NIH U/ml) and the coagulation time was registrated by a fibrinometer. At the inhibition experiments the plasma was incubated for 30 seconds with 10 μl inhibitor solution at different concentrations before the thrombin solutions was added.
"Thrombin time" designates the concentration (mol/l) of the inhibitor, which doubles the thrombin time of dog plasma. The Arg derivates have been synthesized according to ref. 1 and 2.Tos-Gph-OMe has been synthesized according to ref. 6.

The target in another assay is T2, human factor Xa (Homo sapiens, UniProt P00742).
T2 construct: human factor Xa; purchased KabiVitrum AB, Stockholm
In words: Determination of Ki, inhibition of reaction of factor Xa with substrate S-2222. It is filed as biochemical. As to conditions: Table 3; read-out: Ki FXa (converted). The procedure: as §1

The subject of assay [2] is thrombin. To be noted: literature; cited from earlier work.
The subject of assay [3] is thrombin. To be noted: literature; cited from earlier work. The source holds these as a separate data set.
A further assay concerns trypsin. As to conditions: literature; cited from earlier work.

T2 sequence (P00742 235-488 limits assumed): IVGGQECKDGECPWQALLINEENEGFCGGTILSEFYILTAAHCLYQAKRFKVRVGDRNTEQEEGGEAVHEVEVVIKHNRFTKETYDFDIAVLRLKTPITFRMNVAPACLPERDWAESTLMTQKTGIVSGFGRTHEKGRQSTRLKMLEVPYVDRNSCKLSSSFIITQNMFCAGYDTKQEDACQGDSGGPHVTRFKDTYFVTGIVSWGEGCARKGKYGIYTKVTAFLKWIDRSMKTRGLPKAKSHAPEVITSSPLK
T2 sequence (P00742 41-179 partner limits assumed): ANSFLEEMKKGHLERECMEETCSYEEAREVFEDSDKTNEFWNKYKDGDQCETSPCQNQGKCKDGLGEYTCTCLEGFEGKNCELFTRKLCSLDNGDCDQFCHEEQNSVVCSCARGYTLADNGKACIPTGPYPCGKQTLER

`N=C(N)Nc1ccc(C[C@H](NS(=O)(=O)c2ccc3ccccc3c2)C(=O)N2CCOCC2)cc1` [iv, β-Naphthalenesulfonyl--Gph--morpholide]: the Ki at human thrombin (Table 2, Gph-derivatives) is 180 nM; on human factor Xa, 50 µM. Further, the “"Thrombin time" Concentration required to prolong the coagulation time by a factor of 2” value (shortened to “"Thrombin time" Concentration required”) in the assay on thrombin [1] is reported as 8.10^-7 mol/l.
Consider `CN(C)c1cccc2c(S(=O)(=O)N[C@@H](Cc3ccc(NC(=N)N)cc3)C(=O)N3CCCCCC3)cccc12` [vi], for which the Ki on human thrombin (Table 3) is 80 nM; on human factor Xa, 300 µM.
Regarding `CCCCN(C)C(=O)[C@H](Cc1ccc(NC(=N)N)cc1)NS(=O)(=O)c1cccc2c(N(C)C)cccc12` [ix], the Ki was 350 nM on human thrombin (Table 3) and 130 µM on human factor Xa. For the same compound, the “"Thrombin time" Concentration required” value in the assay with thrombin [1] is 2.5.10^-7 mol/l.
For `CC1CCN(C(=O)[C@H](Cc2ccc(NC(=N)N)cc2)NS(=O)(=O)c2cccc3ccccc23)CC1` [iii, α-Naphthalenesulfonyl--Gph--4-methylpiperidide], the Ki on human thrombin (Table 2, Gph-derivatives) is 350 nM; on human factor Xa, 370 µM.
Regarding `CN1CCN(C(=O)[C@H](Cc2ccc(NC(=N)N)cc2)NS(=O)(=O)c2cccc3c(N(C)C)cccc23)CC1` [viii], the Ki is 700 nM on human thrombin (Table 3) and 300 µM on human factor Xa. In the assay on thrombin [1], the “"Thrombin time" Concentration required” value is 1.6.10^-7 mol/l.
Regarding `COC(=O)[C@H](Cc1ccc(NC(=N)N)cc1)NS(=O)(=O)c1ccc(C)cc1` [Tos--Gph--OMe], on human thrombin (Table 1), affinity was put at a Ki of 7500 nM. Also, the “substrate for / split by thrombin” value with thrombin [2] is recorded as “bad substrate for thrombin”. Also, the inhibition of thrombin result in the assay on thrombin [3] was “ability to inhibit the amidase- and esterase activity of thrombin”. The substrate for trypsin result in the assay with trypsin is “good substrate for trypsin”.
`CN(C)c1cccc2c(S(=O)(=O)N[C@@H](CCCNC(=N)N)C(=O)N3CCCCC3)cccc12` [Dansyl--Arg--piperidide, reference compound] came in with an inhibitory constant (Ki) at human thrombin (Table 1) of 90 nM. Besides, the “Thrombin time, plasma: concentration of the inhibitor which doubles the thrombin time of dog plasma” value in the assay with thrombin [1] was 2.10^-6 mol/l.
On to `CCOC(=O)[C@H](CCCNC(=N)N)NC(=O)c1ccccc1` [BAEE, Bz-Arg-OEt], for which the “substrate for / split by thrombin” value in the assay on thrombin [2] is “can be split by thrombin”.
As to `CN(C)c1cccc2c(S(=O)(=O)N[C@@H](Cc3ccc(NC(=N)N)cc3)C(=O)N3CCCCC3)cccc12` [i, N^α -Dansyl-p-guanidino-Phe-piperidide hydrochloride], the Ki on human thrombin (Table 3) came to 90 nM. For the same compound, in the assay with thrombin [1], the “Thrombin time, plasma: concentration of the inhibitor which doubles the thrombin time of dog plasma” value is given as 6.10^-7 mol/l and the “"Thrombin time" Concentration required” value was 6.10^-7 mol/l. For the same compound, at human factor Xa, the Ki was 250 µM.
Turning to `CCCC1CCN(C(=O)[C@H](Cc2ccc(NC(=N)N)cc2)NS(=O)(=O)c2cccc3c(N(C)C)cccc23)CC1` [vii], the results for the Ki at human thrombin (Table 3) and at human factor Xa were 230 nM and 200 µM, respectively. The “"Thrombin time" Concentration required” value with thrombin [1] is listed as 1.5.10^-5 mol/l.
`CCOC(=O)[C@H](Cc1ccc(NC(=N)N)cc1)NC(=O)c1ccccc1` [Bz-Gph-OEt]: the substrate for trypsin entry in the assay with trypsin is “comparable with Tos-Gph-OMe and Tos-Arg-OMe (TAME)”.
As to `Cc1ccc(S(=O)(=O)N[C@@H](Cc2ccc(NC(=N)N)cc2)C(=O)N2CCCCC2)cc1` [v, Tos--Gph--piperidide], the inhibitory constant (Ki) on human thrombin (Table 2, Gph-derivatives) was 800 nM. In the assay with thrombin [1], the “Thrombin time, plasma: concentration of the inhibitor which doubles the thrombin time of dog plasma” value is on record as 1.10^-6 mol/l and the “"Thrombin time" Concentration required” value is 1.10^-6 mol/l. Further, on human factor Xa, the inhibition constant Ki was 250 µM.
With `CC1CCN(C(=O)[C@H](Cc2ccc(NC(=N)N)cc2)NS(=O)(=O)c2ccc3ccccc3c2)CC1` [ii, N^α -(Naphthalene-2-sulfonyl)-p-guanidino-Phe-4-methyl-piperidide hydrochloride], the inhibition constant Ki was 310 nM on human thrombin (Table 2, Gph-derivatives) and 20 µM on human factor Xa. In the assay on thrombin [1], the “"Thrombin time" Concentration required” value is on record as 1.10^-6 mol/l.
Consider `Cc1ccc(S(=O)(=O)N[C@@H](CCCNC(=N)N)C(=O)N2CCCCC2)cc1` [Tos--Arg--piperidide, reference compound], for which the Ki at human thrombin (Table 1) was 5000 nM.

One may read the Ki as the equilibrium dissociation constant of an inhibitor or competing ligand from its target.
